Test results: BigSolDB 2.1

CC[C@H]1OC(=O)[C@H](C)[C@@H](O[C@H]2C[C@@](C)(OC)[C@@H](O)[C@H](C)O2)[C@H](C)[C@@H](O[C@@H]2O[C@H](C)C[C@H](N(C)C)[C@H]2O)[C@](C)(O)C[C@@H](C)CN(C)[C@H](C)[C@@H](O)[C@]1(C)O.O
solubility (mole fraction)
Settings | 278.15 K | 283.15 K | 288.15 K | 293.15 K | 298.15 K | 303.15 K | 308.15 K | 313.15 K | 318.15 K | 323.15 K
in acetone | 0.0305 | 0.0329 | 0.0353 | 0.0386 | 0.0424 | 0.0464 | 0.0512 | 0.0569 | 0.063 | 0.0721
in ethanol | 0.0299 | 0.0325 | 0.0348 | 0.0371 | 0.0406 | 0.0451 | 0.0491 | 0.0538 | 0.0573 | 0.0588
in ethyl acetate | 0.0324 | 0.0341 | 0.0366 | 0.0396 | 0.0436 | 0.0521 | 0.0593 | 0.0671 | 0.0743 | 0.081
in isopropanol | 0.0281 | 0.0303 | 0.0327 | 0.0349 | 0.0388 | 0.0433 | 0.0459 | 0.0507 | 0.0542 | 0.0575
in n-butanol | 0.0249 | 0.0254 | 0.0274 | 0.0282 | 0.0301 | 0.0324 | 0.0356 | 0.0386 | 0.0422 | 0.0466
